Laboratory results reported in patent US11717508B2, “Compounds, compositions, and methods for inhibiting bacterial growth” (priority 2016, dated 2023).
Values joined by “and” are separate entries in the source; they are usually repeats but may differ in a detail not shown here. Equal entries are not always repeated. Where two headings read alike, the source gives them in different places.

Assays:
[1] = system: CDC1551(ΔdosR) mutant; assay type: cell-based; conditions: for Counts per million (CPM): DosR mutant treated with HC101A, replicates 1, 2; for log2 Fold change: DosR mutant, HC101A vs DMSO
[2] = system: DosRST regulon; assay type: cell-based; conditions: 40 μM, 6 days
[3] = system: DosS; assay type: biochemical, Mycobacterium tuberculosis
[4] = target: DosT (Mycobacterium tuberculosis, UniProt P9WGK1, G115L); assay type: biochemical
[5] = system: DosR-regulated genes (dosR, hspX and tgs1); assay type: cell-based, Mycobacterium tuberculosis

## C[C@@H]1CC[C@H]2[C@@H](C)C(=O)O[C@@H]3O[C@]4(C)CC[C@@H]1[C@]32OO4 [HC101A, artemisinin, reference compound]
[1]; gene MT1854 Rv1804c
  Counts per million (CPM): 12.83 CPM and 20.46 CPM
  log2 Fold change: −1.101
[1]; gene MT1893 Rv1845c
  log2 Fold change: 1.059
[1]; gene MT1922 Rv1873
  Counts per million (CPM): 11.35 CPM and 17.72 CPM
  log2 Fold change: −1.314
[1]; gene MT1969 Rv1918c PPE
  Counts per million (CPM): 90.23 CPM and 98.57 CPM
  log2 Fold change: −1.009
[1]; gene MT2040 Rv1986
  Counts per million (CPM): 79.07 CPM and 31.42 CPM
  log2 Fold change: −2.384
[1]; gene MT2126 Rv2066 cobl
  log2 Fold change: 1.049
[1]; gene MT2166 Rv2107 PE
  Counts per million (CPM): 25.86 CPM and 35.24 CPM
  log2 Fold change: −1.899
[1]; gene MT2167 Rv2108 PPE
  Counts per million (CPM): 31.6 CPM and 38.76 CPM
  log2 Fold change: −1.672
[1]; gene MT2168
  Counts per million (CPM): 9.545 CPM and 9.201 CPM
  log2 Fold change: −1.358
[1]; gene MT2264 Rv2208 cobS
  log2 Fold change: 1.264
[1]; gene MT2278 Rv2220 glnA1
  Counts per million (CPM): 635.9 CPM and 701.1 CPM
  log2 Fold change: −1.188
[1]; gene MT2284 Rv2225 panB
  Counts per million (CPM): 197.5 CPM and 213.5 CPM
  log2 Fold change: −1.005
[1]; gene MT2304 Rv2244 acpM
  Counts per million (CPM): 831.8 CPM and 1,835.61 CPM
  log2 Fold change: −1.454
[1]; gene MT2305 Rv2245 kasA
  Counts per million (CPM): 1,175.19 CPM and 2,060.94 CPM
  log2 Fold change: −1.196
[1]; gene MT2306
  Counts per million (CPM): 704.1 CPM and 1,234.02 CPM
  log2 Fold change: −1.017
[1]; gene MT2391 Rv2329c narK1
  Counts per million (CPM): 72.04 CPM and 74 CPM
  log2 Fold change: −1.058
[1]; gene MT2417
  Counts per million (CPM): 8.836 CPM and 16.05 CPM
  log2 Fold change: −1.114
[1]; gene MT2503 Rv2428 ahpC
  Counts per million (CPM): 372.7 CPM and 897.9 CPM
  log2 Fold change: −1.173
[1]; gene MT2504 Rv2429 ahpD
  Counts per million (CPM): 163.9 CPM and 315.8 CPM
[1]; gene MT2506
  Counts per million (CPM): 236.2 CPM and 203 CPM
  log2 Fold change: −1.06
[1]; gene MT2526 Rv2450c
  Counts per million (CPM): 892.4 CPM and 239.7 CPM
  log2 Fold change: −1.032
[1]; gene MT2615 Rv2540c aroF
  log2 Fold change: 1.402
[1]; gene MT2631
  log2 Fold change: 1.063
[1]; gene MT2698 Rv2623
  Counts per million (CPM): 41.08 CPM and 44.83 CPM
  log2 Fold change: −1.072
[1]; gene MT2778 Rv2705c
  Counts per million (CPM): 45.21 CPM and 56.67 CPM
  log2 Fold change: −1.01
[1]; gene MT2849 Rv2779c
  Counts per million (CPM): 26.89 CPM and 12.92 CPM
  log2 Fold change: −1.668
[1]; gene MT2850 Rv2780 ald
  Counts per million (CPM): 1,263.03 CPM and 369.1 CPM
  log2 Fold change: −1.861
[1]; gene MT2863 Rv2794c
  log2 Fold change: 1.021
[1]; gene MT3065 Rv2987c leuD
  Counts per million (CPM): 140.2 CPM and 20.16 CPM
  log2 Fold change: −1.094
[1]; gene MT3110 Rv3026c
  log2 Fold change: 1.612
[1]; gene MT3118 Rv3033
  Counts per million (CPM): 22.06 CPM and 33.57 CPM
[1]; gene MT3132
  Counts per million (CPM): 35.54 CPM and 21.04 CPM
  log2 Fold change: −1.912
[1]; gene MT3133 Rv3048c nrdG
  log2 Fold change: −2.008
[1]; gene MT3134 Rv3049c
  log2 Fold change: −2.181
[1]; gene MT3178 Rv3094c
  log2 Fold change: −1.319
[1]; gene MT3293 Rv3199c
  log2 Fold change: 1.039
[1]; gene MT3327 Rv3230c
  log2 Fold change: 1.145
[1]; gene MT3441 Rv3338
  log2 Fold change: −1.641
[1]; gene MT3481 Rv3371
  log2 Fold change: −1.101
[1]; gene MT3498 Rv3391 acrA1
  log2 Fold change: −1.036
[1]; gene MT3581 Rv3477 PE
  log2 Fold change: −1.558
[1]; gene MT3591 Rv3487c lipF
  log2 Fold change: −1.301
[1]; gene MT3947 Rv3839
  log2 Fold change: −1.144
[1]; gene MT3963 Rv3848
  log2 Fold change: −1.017
[1]; gene MT3969 Rv3854c
  log2 Fold change: −2.018
[1]; gene MT3970 Rv3855
  log2 Fold change: −1.5
[1]; gene MT3976 Rv3862c
  log2 Fold change: −1.387
[1]; gene MT3978 Rv3864
  log2 Fold change: −1.324
[1]; gene MT3988 Rv3874
  log2 Fold change: −1.066
[1]; gene MT3989 Rv3875 esat6
  log2 Fold change: −1.043
[2]
  genes inhibited that are not modulated in the CDC1551(ΔdosR) mutant: 157 genes
[2]; >2-fold, p<0.05
  genes downregulated by compound that are also downregulated in the CDC1551(ΔdosR) mutant: 85 genes
[3]
  oxidation of DosS (E87L) and DosS (G117L) proteins by artemisinin: resistant to oxidation
[4]
  response of DosT (G115L) protein to artemisinin: exhibits artemisinin resistance
[5]
  resistance to artemisinin of DosT (G115L) vs WT DosT or DosT (G85L): ~5 fold
